Laboratory results published in ChEMBL document CHEMBL3739297, “Cross metathesis with hydroxamate and benzamide BOC-protected alkenes to access HDAC inhibitors and their biological evaluation highlighted intrinsic activity of BOC-protected dihydroxamates” (Bioorg Med Chem Lett, 2016).
Calls of active or inactive are those of the source. No cut-off for these calls is given here.

molecular target: T1, Histone deacetylase (Homo sapiens) (UniProt Q13547+O15379+Q9UBN7+Q92769+Q9UQL6+Q8WUI4+Q9BY41+Q96DB2+P56524+Q9UKV0+Q969S8); experiment: Inhibition of HDAC in human MeT-5A cells assessed as hisone H3 acetylation at 100 uM after 16 hrs by BRET assay; type: cell-based; details: not given

| Activity [mU] | Compound |
| --- | --- |
| 17 | CC(C)(C)OC(=O)ON(C(=O)CCCCCCC(=O)N(OC(=O)OC(C)(C)C)C(=O)OC(C)(C)C)C(=O)OC(C)(C)C |

molecular target: T1, Histone deacetylase (Homo sapiens); experiment: Inhibition of HDAC in human MeT-5A cells assessed as hisone H3 acetylation after 16 hrs by BRET assay; type: cell-based; details: not given

| inhibition | Compound |
| --- | --- |
| inactive | CC(C)(C)OC(=O)Nc1ccccc1NC(=O)CCCCCCC(=O)Nc1ccccc1NC(=O)OC(C)(C)C |
| Active | CC(C)(C)OC(=O)ON(C(=O)CCCCCCC(=O)N(OC(=O)OC(C)(C)C)C(=O)OC(C)(C)C)C(=O)OC(C)(C)C |
| Active | Nc1ccccc1NC(=O)CCCCCCC(=O)Nc1ccccc1N |
| inactive | CC(C)(C)OC(=O)ON(C(=O)CC/C=C/CCC(=O)N(OC(=O)OC(C)(C)C)C(=O)OC(C)(C)C)C(=O)OC(C)(C)C |
| inactive | CC(C)(C)OC(=O)Nc1ccccc1NC(=O)CC/C=C/CCC(=O)Nc1ccccc1NC(=O)OC(C)(C)C |

tested on: not listed separately; experiment: Cytotoxicity against human MeT-5A cells; type: cell-based; details: not given

| Compound | Activity |
| --- | --- |
| CC(C)(C)OC(=O)ON(C(=O)CCCCCCC(=O)N(OC(=O)OC(C)(C)C)C(=O)OC(C)(C)C)C(=O)OC(C)(C)C | Non-toxic |
| Nc1ccccc1NC(=O)CCCCCCC(=O)Nc1ccccc1N | Non-toxic |
| CC(=O)Nc1ccc(C(=O)Nc2ccccc2N)cc1 [TACEDINALINE] | Non-toxic |
| O=C(CCCCCCC(=O)Nc1ccccc1)NO [VORINOSTAT] | Non-toxic |
| CC(C)(C)OC(=O)ON(C(=O)CC/C=C/CCC(=O)N(OC(=O)OC(C)(C)C)C(=O)OC(C)(C)C)C(=O)OC(C)(C)C | Non-toxic |
| O=C(CCCCCCC(=O)NO)NO [SUBEROHYDROXAMIC ACID] | Non-toxic |

molecular target: Histone deacetylase 1 (Homo sapiens, UniProt Q13547); experiment: Inhibition of HDAC1 (unknown origin) by fluorimetric assay; details: not given
Sequence (Q13547 whole entry): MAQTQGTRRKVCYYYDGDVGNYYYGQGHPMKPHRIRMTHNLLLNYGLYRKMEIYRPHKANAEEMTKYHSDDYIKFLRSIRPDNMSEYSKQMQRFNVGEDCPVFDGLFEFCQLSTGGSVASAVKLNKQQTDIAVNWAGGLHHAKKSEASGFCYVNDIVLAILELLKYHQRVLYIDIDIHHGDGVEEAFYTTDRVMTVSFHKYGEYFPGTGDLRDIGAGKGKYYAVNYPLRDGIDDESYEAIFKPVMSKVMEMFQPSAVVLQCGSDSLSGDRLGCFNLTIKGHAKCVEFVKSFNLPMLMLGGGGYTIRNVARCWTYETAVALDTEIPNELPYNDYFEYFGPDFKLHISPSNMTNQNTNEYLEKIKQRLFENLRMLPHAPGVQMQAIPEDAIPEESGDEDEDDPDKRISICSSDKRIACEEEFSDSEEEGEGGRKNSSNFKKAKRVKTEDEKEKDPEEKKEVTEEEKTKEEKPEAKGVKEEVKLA

| IC50 [µM] | Compound |
| --- | --- |
| 30.6 | CC(C)(C)OC(=O)ON(C(=O)CCCCCCC(=O)N(OC(=O)OC(C)(C)C)C(=O)OC(C)(C)C)C(=O)OC(C)(C)C |

molecular target: Histone deacetylase 2 (Homo sapiens, UniProt Q92769); experiment: Inhibition of HDAC2 (unknown origin) by fluorimetric assay; details: not given
Sequence (Q92769 whole entry): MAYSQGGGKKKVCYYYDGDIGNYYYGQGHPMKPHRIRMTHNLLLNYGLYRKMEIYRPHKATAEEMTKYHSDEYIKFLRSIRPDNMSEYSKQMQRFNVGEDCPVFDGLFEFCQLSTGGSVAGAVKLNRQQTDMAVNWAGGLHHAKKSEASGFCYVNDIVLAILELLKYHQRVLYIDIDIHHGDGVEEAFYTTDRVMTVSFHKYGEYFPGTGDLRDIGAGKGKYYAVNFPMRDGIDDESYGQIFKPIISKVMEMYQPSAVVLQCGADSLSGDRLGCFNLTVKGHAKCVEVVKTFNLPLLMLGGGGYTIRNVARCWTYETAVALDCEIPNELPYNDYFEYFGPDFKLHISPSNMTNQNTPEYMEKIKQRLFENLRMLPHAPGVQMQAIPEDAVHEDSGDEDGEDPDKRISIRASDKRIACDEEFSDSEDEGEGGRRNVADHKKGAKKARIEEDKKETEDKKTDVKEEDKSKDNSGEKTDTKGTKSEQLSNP

| IC50 [µM] | Compound |
| --- | --- |
| 29.8 | CC(C)(C)OC(=O)ON(C(=O)CCCCCCC(=O)N(OC(=O)OC(C)(C)C)C(=O)OC(C)(C)C)C(=O)OC(C)(C)C |

molecular target: Histone deacetylase 3 (Homo sapiens, UniProt O15379); experiment: Inhibition of HDAC3 (unknown origin) by fluorimetric assay; details: not given
Sequence (O15379 whole entry): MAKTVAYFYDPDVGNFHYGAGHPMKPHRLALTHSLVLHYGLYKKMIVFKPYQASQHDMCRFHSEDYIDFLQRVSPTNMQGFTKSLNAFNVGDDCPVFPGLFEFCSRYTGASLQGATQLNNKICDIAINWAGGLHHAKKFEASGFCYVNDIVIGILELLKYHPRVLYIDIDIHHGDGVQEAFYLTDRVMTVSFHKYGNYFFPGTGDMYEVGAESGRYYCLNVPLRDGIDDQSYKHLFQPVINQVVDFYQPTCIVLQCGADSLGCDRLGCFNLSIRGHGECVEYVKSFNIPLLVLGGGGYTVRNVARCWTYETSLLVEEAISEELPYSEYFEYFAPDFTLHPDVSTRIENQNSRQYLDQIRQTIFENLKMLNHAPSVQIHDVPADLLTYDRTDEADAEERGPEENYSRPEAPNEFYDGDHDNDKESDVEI

| IC50 [µM] | Compound |
| --- | --- |
| > 100 | CC(C)(C)OC(=O)ON(C(=O)CCCCCCC(=O)N(OC(=O)OC(C)(C)C)C(=O)OC(C)(C)C)C(=O)OC(C)(C)C |
| 62.6 | O=C(CCCCCCC(=O)NO)NO [SUBEROHYDROXAMIC ACID] |

molecular target: T2, Protein deacetylase HDAC6 (Homo sapiens, UniProt Q9UBN7); experiment: Inhibition of HDAC6 (unknown origin) by fluorimetric assay; details: not given
T2 sequence (Q9UBN7 whole entry): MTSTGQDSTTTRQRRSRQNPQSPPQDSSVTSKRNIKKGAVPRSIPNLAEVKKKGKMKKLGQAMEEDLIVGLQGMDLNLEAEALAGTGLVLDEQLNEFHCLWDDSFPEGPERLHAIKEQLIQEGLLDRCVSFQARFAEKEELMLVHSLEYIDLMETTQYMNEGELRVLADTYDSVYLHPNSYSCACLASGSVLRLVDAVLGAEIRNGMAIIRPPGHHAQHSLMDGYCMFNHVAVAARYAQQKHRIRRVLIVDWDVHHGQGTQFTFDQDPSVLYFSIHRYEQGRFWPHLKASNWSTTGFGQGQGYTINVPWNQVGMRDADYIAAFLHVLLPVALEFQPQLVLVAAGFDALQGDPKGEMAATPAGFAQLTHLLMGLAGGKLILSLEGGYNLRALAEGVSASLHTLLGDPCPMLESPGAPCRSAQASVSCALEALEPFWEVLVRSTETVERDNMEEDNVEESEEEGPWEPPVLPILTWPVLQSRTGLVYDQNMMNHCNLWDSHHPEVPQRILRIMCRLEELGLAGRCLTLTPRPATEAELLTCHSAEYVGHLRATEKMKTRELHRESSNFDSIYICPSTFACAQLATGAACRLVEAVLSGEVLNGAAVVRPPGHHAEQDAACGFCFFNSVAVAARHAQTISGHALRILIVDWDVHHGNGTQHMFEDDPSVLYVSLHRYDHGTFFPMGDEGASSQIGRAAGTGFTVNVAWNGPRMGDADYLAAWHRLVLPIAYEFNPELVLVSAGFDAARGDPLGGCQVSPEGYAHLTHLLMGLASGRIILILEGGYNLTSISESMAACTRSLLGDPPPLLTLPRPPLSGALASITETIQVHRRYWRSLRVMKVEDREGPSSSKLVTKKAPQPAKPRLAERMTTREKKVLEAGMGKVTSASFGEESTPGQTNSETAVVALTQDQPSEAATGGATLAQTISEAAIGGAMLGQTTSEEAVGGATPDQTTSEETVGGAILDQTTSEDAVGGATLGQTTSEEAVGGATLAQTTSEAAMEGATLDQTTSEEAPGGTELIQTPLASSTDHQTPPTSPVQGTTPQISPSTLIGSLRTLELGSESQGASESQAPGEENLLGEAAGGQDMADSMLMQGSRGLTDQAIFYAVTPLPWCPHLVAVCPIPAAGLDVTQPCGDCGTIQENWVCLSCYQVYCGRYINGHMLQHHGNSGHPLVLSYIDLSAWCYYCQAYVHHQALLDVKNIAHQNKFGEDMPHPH

| IC50 [µM] | Compound |
| --- | --- |
| 3.39 | CC(C)(C)OC(=O)ON(C(=O)CCCCCCC(=O)N(OC(=O)OC(C)(C)C)C(=O)OC(C)(C)C)C(=O)OC(C)(C)C |
| 2.03 | O=C(CCCCCCC(=O)NO)NO [SUBEROHYDROXAMIC ACID] |

species on record: Homo sapiens; experiment: Selectivity index, ratio of IC50 for HDAC1 (unknown origin) to IC50 for HDAC6 (unknown origin); details: not given

| Ratio IC50 | Compound |
| --- | --- |
| 10 | CC(C)(C)OC(=O)ON(C(=O)CCCCCCC(=O)N(OC(=O)OC(C)(C)C)C(=O)OC(C)(C)C)C(=O)OC(C)(C)C |

species on record: Homo sapiens; experiment: Selectivity index, ratio of IC50 for HDAC2 (unknown origin) to IC50 for HDAC6 (unknown origin); details: not given

| Ratio IC50 | Compound |
| --- | --- |
| 10 | CC(C)(C)OC(=O)ON(C(=O)CCCCCCC(=O)N(OC(=O)OC(C)(C)C)C(=O)OC(C)(C)C)C(=O)OC(C)(C)C |

molecular target: T2, Protein deacetylase HDAC6; experiment: Inhibition of HDAC6 in human HeLa cells assessed as inhibition of tubulin deacetylation incubated for overnight by cELISA; type: cell-based; details: not given

| EC50 [µM] | Compound |
| --- | --- |
| 5 | CC(C)(C)OC(=O)ON(C(=O)CCCCCCC(=O)N(OC(=O)OC(C)(C)C)C(=O)OC(C)(C)C)C(=O)OC(C)(C)C |
| 17.7 | CC(C)(C)OC(=O)ON(C(=O)CC/C=C/CCC(=O)N(OC(=O)OC(C)(C)C)C(=O)OC(C)(C)C)C(=O)OC(C)(C)C |
| 1.1 | O=C(CCCCCCC(=O)NO)NO [SUBEROHYDROXAMIC ACID] |

tested on: MCF7; experiment: Antiproliferative activity against human MCF7 cells assessed as cell proliferation after 72 hrs by MTT assay; type: functional; set-up: concentration or dose not given beside the values; details: not given

| Compound | Cell proliferation [%] |
| --- | --- |
| C=CCCC(=O)Nc1ccccc1NC(=O)OC(C)(C)C | 50 |
| CC(C)(C)OC(=O)Nc1ccccc1NC(=O)CCCCCCC(=O)Nc1ccccc1NC(=O)OC(C)(C)C | 87 |
| CC(C)(C)OC(=O)ON(C(=O)CCCCCCC(=O)N(OC(=O)OC(C)(C)C)C(=O)OC(C)(C)C)C(=O)OC(C)(C)C | 92 |
| Nc1ccccc1NC(=O)CCCCCCC(=O)Nc1ccccc1N | 92 |
| C=CCCC(=O)N(OC(=O)OC(C)(C)C)C(=O)OC(C)(C)C | 94 |
| CC(C)(C)OC(=O)ON(C(=O)CC/C=C/CCC(=O)N(OC(=O)OC(C)(C)C)C(=O)OC(C)(C)C)C(=O)OC(C)(C)C | 100 |
| O=C(CCCCCCC(=O)NO)NO [SUBEROHYDROXAMIC ACID] | 93 |

tested on: HepG2; experiment: Antiproliferative activity against human HepG2 cells assessed as cell proliferation after 72 hrs by MTT assay; type: functional; set-up: concentration or dose not given beside the values; details: not given

| Compound | Cell proliferation [%] |
| --- | --- |
| C=CCCC(=O)Nc1ccccc1NC(=O)OC(C)(C)C | 142 |
| CC(C)(C)OC(=O)Nc1ccccc1NC(=O)CCCCCCC(=O)Nc1ccccc1NC(=O)OC(C)(C)C | 136 |
| CC(C)(C)OC(=O)ON(C(=O)CCCCCCC(=O)N(OC(=O)OC(C)(C)C)C(=O)OC(C)(C)C)C(=O)OC(C)(C)C | 108 |
| Nc1ccccc1NC(=O)CCCCCCC(=O)Nc1ccccc1N | 114 |
| C=CCCC(=O)N(OC(=O)OC(C)(C)C)C(=O)OC(C)(C)C | 110 |
| CC(C)(C)OC(=O)ON(C(=O)CC/C=C/CCC(=O)N(OC(=O)OC(C)(C)C)C(=O)OC(C)(C)C)C(=O)OC(C)(C)C | 138 |
| O=C(CCCCCCC(=O)NO)NO [SUBEROHYDROXAMIC ACID] | 107 |

molecular target: T1, Histone deacetylase (Homo sapiens); details: HeLa, at 12.5 µM
Description: Inhibition of human HDAC in HeLa cells nuclear extract at 12.5 uM by fluorimetric assay

| inhibition [%] | Compound |
| --- | --- |
| 60 | CC(C)(C)OC(=O)ON(C(=O)CCCCCCC(=O)N(OC(=O)OC(C)(C)C)C(=O)OC(C)(C)C)C(=O)OC(C)(C)C |
| 42 | CC(=O)Nc1ccc(C(=O)Nc2ccccc2N)cc1 [TACEDINALINE] |
